A value given as a limit tells only on which side of the number the result lay.

In the assay the target is T1, h P2X3 (Homo sapiens, UniProt P56373).
T1 sequence (P56373 1-397): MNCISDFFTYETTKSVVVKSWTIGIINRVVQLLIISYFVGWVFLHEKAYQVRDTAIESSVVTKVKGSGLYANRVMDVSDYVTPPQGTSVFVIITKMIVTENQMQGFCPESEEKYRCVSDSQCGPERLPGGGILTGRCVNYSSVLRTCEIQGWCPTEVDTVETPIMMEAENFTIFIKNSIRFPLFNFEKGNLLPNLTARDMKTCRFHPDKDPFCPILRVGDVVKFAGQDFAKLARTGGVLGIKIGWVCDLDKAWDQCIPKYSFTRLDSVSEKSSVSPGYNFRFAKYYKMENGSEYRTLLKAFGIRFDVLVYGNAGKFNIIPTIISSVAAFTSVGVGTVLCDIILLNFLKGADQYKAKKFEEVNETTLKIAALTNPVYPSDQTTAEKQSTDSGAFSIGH
The assay can be described thus: In vitro electrophysiology assay for P2X3 (automated whole-cell patch clamp, α,β-MeATP agonist). Conditions: Table 2; 800 nM α,β-MeATP, peak current; read-out: h P2X3 (pIC50 range of activity) (converted). The format is cell-based. The method, then: In Vitro Electrophysiology Assay for P2X3
Cells expressing P2X3 receptors were grown according to standard practice and maintained at 37° C. in a 5% humidified CO2 atmosphere. The cells were seeded into T175 flask 2 days prior to the day of the assay and dissociated from the flasks using TrypLE when grown to confluence of 80-90%. The dissociated cells were resuspended in serum free media at a cell density of 3×10^6 cells/ml and loaded onto the Sophion Qube automated patch-clamp system. The extracellular assay buffer contained 145 mM NaCl, 4 mM KCl, 2 mM CaCl2, 1 mM MgCl2, 10 mM HEPES, and 10 mM glucose at pH 7.4. The intracellular assay solution contained 140 mM CsF, 10 mM NaCl, 10 mM EGTA, 10 mM HEPES at pH 7.2. Agonist stock solutions were prepared in H2O and diluted in bath solution prior to use. All antagonists were prepared as 10 mM stock solutions in DMSO and diluted in bath solution prior to use. All experiments were performed under the whole-cell patch clamp configuration at room temperature with 384 individual cells being voltage clamped at −60 mV simultaneously on the Sophion Qube instrument. Two baseline responses were established with the application of α,β-MeATP (800 nM), with the subsequent agonist applications being washed out using extracellular assay buffer containing 0.5 U/ml apyrase. Following the second agonist application, antagonist was incubated in the absence of α,β-MeATP for 10 minutes. After antagonist preincubation, 800 nM α,β-MeATP and antagonist were co-administered to determine the inhibitory effect of the antagonist. One concentration of an antagonist was assessed against a single cell, with different concentrations of the antagonist applied to other cells on the 384 recording substrate. The control P2X3 current amplitude was taken from the peak current amplitude from the second agonist response prior to preincubation with antagonist. The peak P2X3 current amplitude in the presence of antagonist was used to calculate the inhibitory effect at each concentration of the antagonist according to the following equation:
Percentage inhibition of P2X3=(P2X3 control peak amplitude−P2X3 antagonist peak amplitude)/P2X3 control peak amplitude)*100
Concentration-response curves were constructed from ten different concentrations with each concentration of antagonist tested on at least two individual cells. The concentration of the antagonist to inhibit P2X3 current by 50% (IC50) was determined by fitting the data with the following equation:
Y=a+[(b−a)/(1+10^((log c−x)d)]
Where ‘a’ is minimum response, ‘b’ is maximum response, ‘c’ is IC50 and ‘d’ is Hill slope.
For orientation: The patch-clamp technique gives a direct electrical read-out from membranes.
Take `C[C@@H](Nc1ncnc2c(OCC(=O)O)cc(-c3ccc(F)cc3)cc12)c1cnc(C(F)(F)F)nc1` [Example 39, (R)-2-((6-(4-fluorophenyl)-4-((1-(2-(trifluoromethyl)pyrimidin-5-yl)ethyl)amino)quinazolin-8-yl)oxy)acetic acid]: the IC50 is less than 316 nM.

Take `C[C@@H](Nc1ncnc2c(OCC(=O)NS(=O)(=O)c3ccccc3)cc(-c3ccc(F)cc3)cc12)c1cnc(C(F)(F)F)nc1` [Example 40, (R)-2-((6-(4-fluorophenyl)-4-((1-(2-(trifluoromethyl)pyrimidin-5-yl)ethyl)amino)quinazolin-8-yl)oxy)-N-(phenylsulfonyl)acetamide]: the IC50 is less than 316 nM.

`C[C@@H](Nc1ncnc2c(OCC3(C(=O)O)CC3)cc(-c3ccc(F)cc3)cc12)c1cnc(C(F)(F)F)nc1` [Example 41, (R)-1-(((6-(4-fluorophenyl)-4-((1-(2-(trifluoromethyl)pyrimidin-5-yl)ethyl)amino)quinazolin-8-yl)oxy)methyl)cyclopropane-1-carboxylic acid]: the IC50 was 316 to 3160 nM.

In the case of `C[C@@H](Nc1ncnc2c(OCC(=O)NC3(C(=O)O)CC3)cc(-c3ccc(F)cc3)cc12)c1cnc(C(F)(F)F)nc1` [Example 44, (R)-1-(2-((6-(4-fluorophenyl)-4-((1-(2-(trifluoromethyl)pyrimidin-5-yl)ethyl)amino)quinazolin-8-yl)oxy)acetamido)cyclopropane-1-carboxylic acid], the IC50 is 316 to 3160 nM.

Turning to `Cc1ccc(CNc2ncnc3c(OCC(=O)N[C@H]4CCC[C@H]4C(=O)O)cc(-c4ccc(F)cc4)cc23)nn1` [Example 45, (1R,2S)-2-(2-((6-(4-fluorophenyl)-4-(((6-methylpyridazin-3-yl)methyl)amino)quinazolin-8-yl)oxy)acetamido)cyclopentane-1-carboxylic acid], the IC50 was less than 316 nM.

With `CCOC(=O)[C@H]1CCC[C@H]1NC(=O)COc1cc(-c2ccc(F)cc2)cc2c(NCc3ccc(C)nn3)ncnc12` [Example 46, Ethyl (1S,2R)-2-(2-((6-(4-fluorophenyl)-4-(((6-methylpyridazin-3-yl)methyl)amino)quinazolin-8-yl)oxy)acetamido)cyclopentane-1-carboxylate], the IC50 was 316 to 3160 nM.

As to `C[C@@H](Nc1ncnc2c(OCC3(C(=O)O)CCCCC3)cc(-c3ccc(F)cc3)cc12)c1cnc(C(F)(F)F)nc1` [Example 48, (R)-1-(((6-(4-fluorophenyl)-4-((1-(2-(trifluoromethyl)pyrimidin-5-yl)ethyl)amino)quinazolin-8-yl)oxy)methyl)cyclohexane-1-carboxylic acid], the IC50 is 316 to 3160 nM.

As for `Cc1cnc(-c2cc(OCC(=O)NS(=O)(=O)c3ccccc3)c3ncnc(NCc4ccc(C)nn4)c3c2)nc1` [Example 49, Ammonium (2-((4-(((6-methylpyridazin-3-yl)methyl)amino)-6-(5-methylpyrimidin-2-yl)quinazolin-8-yl)oxy)acetyl)(phenylsulfonyl) amide], the IC50 is less than 316 nM.

On to `Cc1ccc(CNc2ncnc3c(OCC4(C)COC4)cc(-c4ccc(F)cc4)cc23)nn1` [Example 50, 6-(4-fluorophenyl)-8-[(3-methyloxetan-3-yl)methoxy]-N-[(6-methylpyridazin-3-yl)methyl]quinazolin-4-amine], for which the IC50 was less than 316 nM.

As for `Cc1ccc(CNc2ncnc3c(OCC4(C(F)(F)F)CC4)cc(-c4ccc(F)cc4)cc23)nn1` [Example 51, 6-(4-fluorophenyl)-N-[(6-methylpyridazin-3-yl)methyl]-8-[[1-(trifluoromethyl)cyclopropyl]methoxy]quinazolin-4-amine], the IC50 was 316 to 3160 nM.

As to `Cc1ccc(CNc2ncnc3c(OC4CN(C(=O)OC(C)(C)C)C4)cc(-c4ccc(F)cc4)cc23)nn1` [Example 52, tert-butyl 3-[6-(4-fluorophenyl)-4-[(6-methylpyridazin-3-yl)methylamino]quinazolin-8-yl]oxyazetidine-1-carboxylate], the IC50 is 316 to 3160 nM.

Regarding `Cc1ccc(CNc2ncnc3c(OCC#N)cc(-c4ccc(F)cc4)cc23)nn1` [Example 53], the IC50 was less than 316 nM.

On to `CON(C)C(=O)COc1cc(-c2ccc(F)cc2)cc2c(NCc3ccc(C)nn3)ncnc12` [Example 54, 2-[6-(4-fluorophenyl)-4-[(6-methylpyridazin-3-yl)methylamino]quinazolin-8-yl]oxy-N-methoxy-N-methyl-acetamide], for which the IC50 was less than 316 nM.

With `Cc1ccc(CNc2ncnc3c(OCCOCCO)cc(-c4ccc(F)cc4)cc23)nn1` [Example 55], the IC50 was less than 316 nM.

Regarding `Cc1ccc(CNc2ncnc3c(OC4CCN(C)C4=O)cc(-c4ccc(F)cc4)cc23)nn1` (stereo not drawn) [Example 56, 3-[6-(4-fluorophenyl)-4-[(6-methylpyridazin-3-yl)methylamino]quinazolin-8-yl]oxy-1-methyl-pyrrolidin-2-one], the IC50 is 316 to 3160 nM.

For the compound `Cc1ccc(CNc2ncnc3c(OCc4ncco4)cc(-c4ccc(F)cc4)cc23)nn1` [Example 57, 6-(4-fluorophenyl)-N-[(6-methylpyridazin-3-yl)methyl]-8-(oxazol-2-ylmethoxy)quinazolin-4-amine], the IC50 is less than 316 nM.

With `Cc1ccc(CNc2ncnc3c(OCc4noc(C)n4)cc(-c4ccc(F)cc4)cc23)nn1` [Example 58, 6-(4-fluorophenyl)-8-[(5-methyl-1,2,4-oxadiazol-3-yl)methoxy]-N-[(6-methylpyridazin-3-yl)methyl]quinazolin-4-amine], the IC50 was less than 316 nM.

On to `CCc1noc(COc2cc(-c3ccc(F)cc3)cc3c(NCc4ccc(C)nn4)ncnc23)n1` [Example 59, 8-[(3-ethyl-1,2,4-oxadiazol-5-yl)methoxy]-6-(4-fluorophenyl)-N-[(6-methylpyridazin-3-yl)methyl]quinazolin-4-amine], for which the IC50 is less than 316 nM.

As to `Cc1ccc(CNc2ncnc3c(OCc4nnc(C5CC5)s4)cc(-c4ccc(F)cc4)cc23)nn1` [Example 60, 8-[(5-cyclopropyl-1,3,4-thiadiazol-2-yl)methoxy]-6-(4-fluorophenyl)-N-[(6-methylpyridazin-3-yl)methyl]quinazolin-4-amine], the IC50 was less than 316 nM.

Turning to `Cc1ccc(CNc2ncnc3c(OCC(=O)NCC(F)(F)F)cc(-c4ccc(F)cc4)cc23)nn1` [Example 61, 2-[6-(4-fluorophenyl)-4-[(6-methylpyridazin-3-yl)methylamino]quinazolin-8-yl]oxy-N-(2,2,2-trifluoroethyl)acetamide], the IC50 was 316 to 3160 nM.

For the compound `Cc1ccc(CNc2ncnc3c(OC4COC4)cc(-c4ccc(F)cc4)cc23)nn1` [Example 63, 6-(4-fluorophenyl)-N-((6-methylpyridazin-3-yl)methyl)-8-(oxetan-3-yloxy)quinazolin-4-amine], the IC50 is 316 to 3160 nM.

For the compound `COC(=O)N1CCC(COc2cc(-c3ccc(F)cc3)cc3c(NCc4ccc(C)nn4)ncnc23)CC1` [Example 64, Methyl 4-[[6-(4-fluorophenyl)-4-[(6-methylpyridazin-3-yl)methylamino]quinazolin-8-yl]oxymethyl]piperidine-1-carboxylate], the IC50 was 316 to 3160 nM.

On to `COC(=O)N1CCCC(COc2cc(-c3ccc(F)cc3)cc3c(NCc4ccc(C)nn4)ncnc23)C1` (stereo not drawn) [Example 66, Methyl 3-[6-(4-fluorophenyl)-4-[(6-methylpyridazin-3-yl)methylamino]quinazolin-8-yl]oxymethyl]piperidine-1-carboxylate], for which the IC50 was 316 to 3160 nM.

As to `COC(=O)N1CCC(COc2cc(-c3ccc(F)cc3)cc3c(NCc4ccc(C)nn4)ncnc23)C1` (stereo not drawn) [Example 67, Methyl 3-[[6-(4-fluorophenyl)-4-[(6-methylpyridazin-3-yl)methylamino]quinazolin-8-yl]oxymethyl]pyrrolidine-1-carboxylate], the IC50 is 316 to 3160 nM.

These data come from patent publication US20240025880A1 (CHIESI FARMACEUTICI S.P.A., priority 2020, published 2024).
